Assay results published in ChEMBL document CHEMBL4725382, “Uridine natural products: Challenging targets and inspiration for novel small molecule inhibitors” (Bioorg Med Chem, 2020).
In brackets after ≈: the same amount, converted by molar mass.

These compounds were tested on Mycobacterium tuberculosis (assay: Antimycobacterial activity against Mycobacterium tuberculosis H37Rv).
Format: functional

Compound | MIC [µM]
CCc1ccc(NC(=O)C2=CCN(C)[C@@H]([C@H](O[C@@H]3O[C@H](CN)[C@@H](O)[C@H]3O)[C@H]3O[C@@H](n4ccc(=O)[nH]c4=O)[C@H](O)[C@@H]3O)C(=O)N2C)cc1 | 1.09 (≈ 0.72 µg/mL)
CC/C=C\CCCCCCCCCCOC(=O)C1=CCN(C)[C@@H]([C@H](O[C@@H]2O[C@H](CN)[C@@H](O)[C@H]2O)[C@H]2O[C@@H](n3ccc(=O)[nH]c3=O)[C@H](O)[C@@H]2O)C(=O)N1C | 16.6 (≈ 12.5 µg/mL)
CCCCCCCCCCCCc1ccc(NC(=O)C2=CCN(C)[C@@H]([C@H](O[C@@H]3O[C@H](CN)[C@@H](O)[C@H]3O)[C@H]3O[C@@H](n4ccc(=O)[nH]c4=O)[C@H](O)[C@@H]3O)C(=O)N2C)cc1 | 1.09 (≈ 0.873 µg/mL)
CCCCCCCCCCCCCCCNC(=O)C1=CCN(C)[C@@H]([C@H](O[C@@H]2O[C@H](CN)[C@@H](O)[C@H]2O)[C@H]2O[C@@H](n3ccc(=O)[nH]c3=O)[C@H](O)[C@@H]2O)C(=O)N1C | 0.98 (≈ 0.752 µg/mL)
CCCCc1ccc(N)cc1 | 2.27 (≈ 0.339 µg/mL)
CCCCCCCCNC(=O)C1=CCN(C)[C@@H]([C@H](O[C@@H]2O[C@H](CN)[C@@H](O)[C@H]2O)[C@H]2O[C@@H](n3ccc(=O)[nH]c3=O)[C@H](O)[C@@H]2O)C(=O)N1C | 0.98 (≈ 0.655 µg/mL)
CO[C@@H]1[C@@H](OC)[C@H](C)O[C@@H](OC(=O)C[C@@H](C)CC(=O)O[C@@H](CCCCCCCCCCC(C)C)CC(=O)O[C@H]2CN(C)[C@@H]([C@H](O[C@@H]3O[C@H](CN)[C@@H](O)[C@H]3O)[C@H]3O[C@@H](n4ccc(=O)[nH]c4=O)[C@H](O)[C@@H]3O)C(=O)N(C)[C@@H]2C(=O)O)[C@@H]1OC | 2.73 (≈ 3.13 µg/mL)
CCCCCCCNC(=O)C1=CCN(C)[C@@H]([C@H](O[C@@H]2O[C@H](CN)[C@@H](O)[C@H]2O)[C@H]2O[C@@H](n3ccc(=O)[nH]c3=O)[C@H](O)[C@@H]2O)C(=O)N1C | 0.98 (≈ 0.642 µg/mL)
CCCCOc1ccc(N)cc1 | 2.27 (≈ 0.375 µg/mL)
Nc1ccc(C2CCCCC2)cc1 | 2.27 (≈ 0.398 µg/mL)
CCCCCCCc1ccc(NC(=O)C2=CCN(C)[C@@H]([C@H](O[C@@H]3O[C@H](CN)[C@@H](O)[C@H]3O)[C@H]3O[C@@H](n4ccc(=O)[nH]c4=O)[C@H](O)[C@@H]3O)C(=O)N2C)cc1 | 1.09 (≈ 0.797 µg/mL)
CCCCCCCCCCCCCCNC(=O)C1=CCN(C)[C@@H]([C@H](O[C@@H]2O[C@H](CN)[C@@H](O)[C@H]2O)[C@H]2O[C@@H](n3ccc(=O)[nH]c3=O)[C@H](O)[C@@H]2O)C(=O)N1C | 0.98 (≈ 0.738 µg/mL)
CCCCCCNC(=O)C1=CCN(C)[C@@H]([C@H](O[C@@H]2O[C@H](CN)[C@@H](O)[C@H]2O)[C@H]2O[C@@H](n3ccc(=O)[nH]c3=O)[C@H](O)[C@@H]2O)C(=O)N1C | 0.98 (≈ 0.628 µg/mL)
CN1C(=O)[C@H]([C@H](O[C@@H]2O[C@H](CN)[C@@H](O)[C@H]2O)[C@H]2O[C@@H](n3ccc(=O)[nH]c3=O)[C@H](O)[C@@H]2O)N(C)CC=C1C(=O)Nc1ccc(C2CCCCC2)cc1 | 2.18 (≈ 1.56 µg/mL)
CCCCCCCCCNC(=O)C1=CCN(C)[C@@H]([C@H](O[C@@H]2O[C@H](CN)[C@@H](O)[C@H]2O)[C@H]2O[C@@H](n3ccc(=O)[nH]c3=O)[C@H](O)[C@@H]2O)C(=O)N1C | 0.98 (≈ 0.669 µg/mL)
CCCCCCCCCCCCCCCCCCOC(=O)C1=CCN(C)[C@@H]([C@H](O[C@@H]2O[C@H](CN)[C@@H](O)[C@H]2O)[C@H]2O[C@@H](n3ccc(=O)[nH]c3=O)[C@H](O)[C@@H]2O)C(=O)N1C | 8.45 (≈ 6.84 µg/mL)

Compound | MIC [µM]
CCCCOc1ccc(NC(=O)C2=CCN(C)[C@@H]([C@H](O[C@@H]3O[C@H](CN)[C@@H](O)[C@H]3O)[C@H]3O[C@@H](n4ccc(=O)[nH]c4=O)[C@H](O)[C@@H]3O)C(=O)N2C)cc1 | 1.04 (≈ 0.733 µg/mL)
CCCCCCCC/C=C\CCCCCCCCNC(=O)C1=CCN(C)[C@@H]([C@H](O[C@@H]2O[C@H](CN)[C@@H](O)[C@H]2O)[C@H]2O[C@@H](n3ccc(=O)[nH]c3=O)[C@H](O)[C@@H]2O)C(=O)N1C | 3.88 (≈ 3.13 µg/mL)
CCCCCCCCCCCCCOC(=O)C1=CCN(C)[C@@H]([C@H](O[C@@H]2O[C@H](CN)[C@@H](O)[C@H]2O)[C@H]2O[C@@H](n3ccc(=O)[nH]c3=O)[C@H](O)[C@@H]2O)C(=O)N1C | 8.45 (≈ 6.25 µg/mL)
CN1C(=O)[C@H]([C@H](O[C@@H]2O[C@H](CN)[C@@H](O)[C@H]2O)[C@H]2O[C@@H](n3ccc(=O)[nH]c3=O)[C@H](O)[C@@H]2O)N(C)CC=C1C(=O)NC1CCCCCCCCCCC1 | 2.16 (≈ 1.56 µg/mL)
CCCCCCCCCCCCCCCCCCNC(=O)C1=CCN(C)[C@@H]([C@H](O[C@@H]2O[C@H](CN)[C@@H](O)[C@H]2O)[C@H]2O[C@@H](n3ccc(=O)[nH]c3=O)[C@H](O)[C@@H]2O)C(=O)N1C | 0.98 (≈ 0.793 µg/mL)
CCCCCCCOc1ccc(NC(=O)C2=CCN(C)[C@@H]([C@H](O[C@@H]3O[C@H](CN)[C@@H](O)[C@H]3O)[C@H]3O[C@@H](n4ccc(=O)[nH]c4=O)[C@H](O)[C@@H]3O)C(=O)N2C)cc1 | 0.98 (≈ 0.732 µg/mL)
CCCCCCCCCCOC(=O)C1=CCN(C)[C@@H]([C@H](O[C@@H]2O[C@H](CN)[C@@H](O)[C@H]2O)[C@H]2O[C@@H](n3ccc(=O)[nH]c3=O)[C@H](O)[C@@H]2O)C(=O)N1C | 8.45 (≈ 5.9 µg/mL)
CCCCc1ccc(NC(=O)C2=CCN(C)[C@@H]([C@H](O[C@@H]3O[C@H](CN)[C@@H](O)[C@H]3O)[C@H]3O[C@@H](n4ccc(=O)[nH]c4=O)[C@H](O)[C@@H]3O)C(=O)N2C)cc1 | 1.09 (≈ 0.751 µg/mL)
CCCCCCCCCCCCCCCCNC(=O)C1=CCN(C)[C@@H]([C@H](O[C@@H]2O[C@H](CN)[C@@H](O)[C@H]2O)[C@H]2O[C@@H](n3ccc(=O)[nH]c3=O)[C@H](O)[C@@H]2O)C(=O)N1C | 0.98 (≈ 0.765 µg/mL)
CCCCCCCCCCCCCNC(=O)C1=CCN(C)[C@@H]([C@H](O[C@@H]2O[C@H](CN)[C@@H](O)[C@H]2O)[C@H]2O[C@@H](n3ccc(=O)[nH]c3=O)[C@H](O)[C@@H]2O)C(=O)N1C | 0.98 (≈ 0.724 µg/mL)
CCCCCCCCCCCCNC(=O)C1=CCN(C)[C@@H]([C@H](O[C@@H]2O[C@H](CN)[C@@H](O)[C@H]2O)[C@H]2O[C@@H](n3ccc(=O)[nH]c3=O)[C@H](O)[C@@H]2O)C(=O)N1C | 0.98 (≈ 0.71 µg/mL)
CCCCCCc1ccc(NC(=O)C2=CCN(C)[C@@H]([C@H](O[C@@H]3O[C@H](CN)[C@@H](O)[C@H]3O)[C@H]3O[C@@H](n4ccc(=O)[nH]c4=O)[C@H](O)[C@@H]3O)C(=O)N2C)cc1 | 1.09 (≈ 0.781 µg/mL)
CCCCCCCCCCCNC(=O)C1=CCN(C)[C@@H]([C@H](O[C@@H]2O[C@H](CN)[C@@H](O)[C@H]2O)[C@H]2O[C@@H](n3ccc(=O)[nH]c3=O)[C@H](O)[C@@H]2O)C(=O)N1C | 0.98 (≈ 0.697 µg/mL)
C=CCCCCCCCCCOC(=O)C1=CCN(C)[C@@H]([C@H](O[C@@H]2O[C@H](CN)[C@@H](O)[C@H]2O)[C@H]2O[C@@H](n3ccc(=O)[nH]c3=O)[C@H](O)[C@@H]2O)C(=O)N1C | 17.6 (≈ 12.5 µg/mL)
CCCCCCCCCCCCCCCCCCCCCNC(=O)C1=CCN(C)[C@@H]([C@H](O[C@@H]2O[C@H](CN)[C@@H](O)[C@H]2O)[C@H]2O[C@@H](n3ccc(=O)[nH]c3=O)[C@H](O)[C@@H]2O)C(=O)N1C | 0.98 (≈ 0.834 µg/mL)
CCCCCCCCCCCCCCCCCCCNC(=O)C1=CCN(C)[C@@H]([C@H](O[C@@H]2O[C@H](CN)[C@@H](O)[C@H]2O)[C@H]2O[C@@H](n3ccc(=O)[nH]c3=O)[C@H](O)[C@@H]2O)C(=O)N1C | 0.98 (≈ 0.807 µg/mL)
